Laboratory results as given in PMC10082216 (Nature Communications, 2023).

Legend:
[1] = system: mature stage V gametocytes (NF54 strain); test: High-throughput screening: killing effect by MitoTracker staining, primary screening at 1.11 µM and dose-response analysis; assay type: cell-based, Plasmodium falciparum; set-up: Killing 1 / Killing 2: unit not given here
Summary of the method: (§1)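 NF54 stage V gametocytes (day 17, density-purified, 0.5% hematocrit) exposed 24 h to compounds at 1.11 µM (primary) or in dose-response. Killing scored by MitoTracker staining; gametocytemia by Sybr Green/CellMask staining, with microsphiltration for stiffening. DMSO 0.05% negative control.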

[2] = Hit scoring on safety in human subjects and pharmacokinetics; conditions: for Score (PK): peak plasma concentration vs IC50
Text: Hits from the ReFrame library were further selected based on safety, preferably oral administration (high score if oral), and potential availability for widespread use.

[3] = system: mature stage V gametocytes (NF54 strain); test: microbe, parasite or virus in culture; assay type: cell-based, Plasmodium falciparum; conditions: for IC50 / IC90: Plasmodium falciparum; for IC90: NF54, read-out: Retention IC90; for Retention IC10: Fig. 3 dose-response
Summary of the method: as §1

[4] = NF54, 24 h, read-out: Stiffening IC50 (retention)

| Structure (SMILES) | Killing 1 ([1]; Concentration (µM) 0.00457) | Killing 2 ([1]; Concentration (µM) 0.00457) | Killing 1 ([1]; Concentration (µM) 0.01372) | Killing 2 ([1]; Concentration (µM) 0.01372) | Killing 1 ([1]; Concentration (µM) 0.04115) | Killing 2 ([1]; Concentration (µM) 0.04115) | Killing 1 ([1]; Concentration (µM) 0.12346) | Killing 2 ([1]; Concentration (µM) 0.12346) | Killing 1 ([1]; Concentration (µM) 0.37037) | Killing 2 ([1]; Concentration (µM) 0.37037) | Killing 2 ([1]; Concentration (µM) 1.11111) | Killing 2 ([1]; Concentration (µM) 3.33333) | Killing 2 ([1]; Concentration (µM) 10) | Score (safety) [2] | Score (PK) [2] | Retention 1 ([3]; Concentration 0.00457) | Retention 2 ([3]; Concentration 0.00457) | Retention 1 ([3]; Concentration 0.01372) | Retention 2 ([3]; Concentration 0.01372) | Retention 1 ([3]; Concentration 0.04115) | other results |
| --- | --- | --- | --- | --- | --- | --- | --- | --- | --- | --- | --- | --- | --- | --- | --- | --- | --- | --- | --- | --- | --- |
| COc1cc2c(cc1OC)[C@@H]1Cc3ccc(OC)c(OC)c3CN1CC2 [(S)-(-)-Tetrahydropalmatine] | -2.5151 | 13.1152 | -0.7507 | 16.6892 | -11.759 | -1.725 | -2.104 | -3.416 | -7.032 | 6.932 | -20.6174 | 1.7558 | -10.2887 | 3 | 6 (Peak plasma concentration higher than 3 IC50 (Score = 6)) | 36.1518 | 18.1904 | 42.4295 | 17.9082 | 39.0679 | Retention 2 ([3]; Concentration 0.04115): 21.6203; Retention 1 ([3]; Concentration 0.12346): 52.9692; Retention 2 ([3]; Concentration 0.12346): 17.6021; Retention 1 ([3]; Concentration 0.37037): 34.5737; Retention 2 ([3]; Concentration 0.37037): 33.9194; Retention 1 ([3]; Concentration 1.11111): 41.4215; Retention 2 ([3]; Concentration 1.11111): 25.646; Retention 1 ([3]; Concentration 3.33333): 50.7426; Retention 2 ([3]; Concentration 3.33333): 20.0803; Retention 1 ([3]; Concentration 10): 49.3139; Retention 2 ([3]; Concentration 10): 22.5855; IC50 [3, 4]: 1 nM; IC90 [3]: 6 nM |
| C[C@H]1Cc2c([nH]c3cc(Cl)c(F)cc23)[C@@]2(N1)C(=O)Nc1ccc(Cl)cc12 [NITD609, cipargamin] | -6.197 | 1.637 | 7.015 | 11.7246 | 2.936 | 8.401 | 38.3591 | 39.938 | 69.6281 | 81.8548 | 86.5546 | 89.8018 | 89.7094 | 3 | 6 (Peak plasma concentration higher than 3 IC50 (Score = 6)) | 5.495 | 24.2833 | 19.4986 | 27.3994 | 24.1896 | Killing 1 ([1]; Concentration (µM) 1.11111): 86.7644; Killing 1 ([1]; Concentration (µM) 3.33333): 82.0471; Killing 1 ([1]; Concentration (µM) 10): 93.1364; Killing IC10 ([1]; Fig. 3 dose-response): 50 nM; IC50 ([1]; Plasmodium falciparum, NF54, 24 h, stage V gametocytes NF54, 24 h, dose-response analysis, N/A = not active in dose-response analysis, read-out: Killing IC50): 150 nM; IC90 ([1]; Plasmodium falciparum, NF54, Fig. 3 dose-response): 500 nM; Retention 2 ([3]; Concentration 0.04115): 16.3872; Retention 1 ([3]; Concentration 0.12346): 74.5556; Retention 2 ([3]; Concentration 0.12346): 59.61; Retention 1 ([3]; Concentration 0.37037): 100; Retention 2 ([3]; Concentration 0.37037): 100; Retention 1 ([3]; Concentration 1.11111): 100; Retention 2 ([3]; Concentration 1.11111): 94.1314; Retention 1 ([3]; Concentration 3.33333): 100; Retention 2 ([3]; Concentration 3.33333): 100; Retention 1 ([3]; Concentration 10): 100; Retention 2 ([3]; Concentration 10): 100; Retention IC10 [3]: 60 nM; IC50 [3, 4]: 110 nM; IC90 [3]: 160 nM |
| CNC(=O)N1C[C@@H](C)N(c2ccc(C(=O)Nc3ccc(-c4ccc(-c5c[nH]c([C@@H]6CCCN6C(=O)[C@@H](NC(=O)OC)C(C)C)n5)cc4)c(OC(F)(F)F)c3)cn2)C[C@@H]1C [TD-6450] | 11.2808 | -14.2963 | 2.341 | 5.18 | 2.7905 | -6.465 | 6.495 | 2.622 | 21.5808 | 10.8967 | -5.531 | 15.2641 | 9.163 | 3 | 3 (Peak plasma concentration between IC50 and 3 IC50 (Score = 3)) | 6.791 | 14.2035 | 30.2208 | 10.7025 | 30.7002 | Killing 1 ([1]; Concentration (µM) 1.11111): 13.8006; Killing 1 ([1]; Concentration (µM) 3.33333): 21.7528; Killing 1 ([1]; Concentration (µM) 10): 38.4381; outcome of primary screen (hit definition) ([3]; 1.11 µM): met the hit definition; Retention 2 ([3]; Concentration 0.04115): 37.9062; Retention 1 ([3]; Concentration 0.12346): 45.793; Retention 2 ([3]; Concentration 0.12346): 33.0106; Retention 1 ([3]; Concentration 0.37037): 16.5379; Retention 2 ([3]; Concentration 0.37037): 35.496; Retention 1 ([3]; Concentration 1.11111): 46.8849; Retention 2 ([3]; Concentration 1.11111): 58.9321; Retention 1 ([3]; Concentration 3.33333): 60.4317; Retention 2 ([3]; Concentration 3.33333): 53.8901; Retention 1 ([3]; Concentration 10): 70.8882; Retention 2 ([3]; Concentration 10): 66.7706; Retention IC10 [3]: 30 nM; IC50 [3, 4]: 550 nM; IC50 ([3]; NF54, read-out: IC50 during the screening campaign, all gametocytes stained): 455 ± 304 nM; IC90 [3]: 4500 nM; differential retention rate versus DMSO upon primary screening ([3]; one well/compound, 1.11 µM): 32% |
